# Assays:
# Assay in all cases: differential drug sensitivity score (dDSS) relative to sarcoma reference cohort mean DSS (DSS units (0-100 scale difference)); higher = more selective sensitivity than reference sarcomas
# Conditions in all cases: exposure time: 72 h; concentration range: 10-10000 nM
# ES-ZH016 = system: ES-ZH016 (patient-derived Ewing sarcoma tumoroid)
# Method: (§1)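 Drug response profiling of patient-derived Ewing sarcoma and CIC::DUX4 sarcoma tumoroid models (or cells tested directly after isolation from the tumor, 'direct'). The DSS is the normalised AUC (0-100); dDSS is the sample DSS minus the mean DSS of a 34-sarcoma reference cohort profiled in the same lab.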
# CDS-ZH001 = system: CDS-ZH001 (patient-derived CIC-DUX4 sarcoma tumoroid)
# Method: as §1
# CDS-ZH003 = system: CDS-ZH003 (patient-derived CIC-DUX4 sarcoma tumoroid)
# Method: as §1
# ES-ZH002 = system: ES-ZH002 (patient-derived Ewing sarcoma tumoroid)
# Method: as §1
# ES-ZH016 direct = system: ES-ZH016 direct (Ewing sarcoma cells right after isolation)
# Method: as §1
# ES-ZH001 = system: ES-ZH001 (patient-derived Ewing sarcoma tumoroid)
# Method: as §1
# CDS-ZH001-2 = system: CDS-ZH001-2 (patient-derived CIC-DUX4 sarcoma tumoroid)
# Method: as §1
# ES-ZH009 = system: ES-ZH009 (patient-derived Ewing sarcoma tumoroid)
# Method: as §1
# ES-ZH007 = system: ES-ZH007 (patient-derived Ewing sarcoma tumoroid)
# Method: as §1
# ES-ZH004 = system: ES-ZH004 (patient-derived Ewing sarcoma tumoroid)
# Method: as §1
# CDS-ZH002 = system: CDS-ZH002 (patient-derived CIC-DUX4 sarcoma tumoroid)
# Method: as §1
# CDS-ZH002 direct = system: CDS-ZH002 direct (CIC-DUX4 sarcoma cells right after isolation)
# Method: as §1
# ES-ZH008 = system: ES-ZH008 (patient-derived Ewing sarcoma tumoroid)
# Method: as §1
Compound,differential drug sensitivity score (ES-ZH016),differential drug sensitivity score (CDS-ZH001),differential drug sensitivity score (CDS-ZH003),differential drug sensitivity score (ES-ZH002),differential drug sensitivity score (ES-ZH016 direct),differential drug sensitivity score (ES-ZH001),differential drug sensitivity score (CDS-ZH001-2),differential drug sensitivity score (ES-ZH009),differential drug sensitivity score (ES-ZH007),differential drug sensitivity score (ES-ZH004),differential drug sensitivity score (CDS-ZH002),differential drug sensitivity score (CDS-ZH002 direct),differential drug sensitivity score (ES-ZH008)
CS(=O)(=O)CCNCc1ccc(-c2ccc3ncnc(Nc4ccc(OCc5cccc(F)c5)c(Cl)c4)c3c2)o1 [Lapatinib],-0.7,-0.7,-0.7,0.3,-0.5,-0.7,-0.5,-0.7,-0.7,-0.7,-0.7,-0.7,-0.7
CCCN(CCC)C(=O)C1=Cc2ccc(-c3ccc(C(=O)N4CCCC4)cc3)cc2N=C(N)C1 [Motolimod],0.2,-2,-3.1,1.9,0.4,1.9,4.9,-1.5,-2.9,-3.1,-1.9,2.1,0.1
C[C@H]1Oc2cc(cnc2N)-c2c(nn(C)c2C#N)CN(C)C(=O)c2ccc(F)cc21 [Lorlatinib],1.2,11.6,1.5,5.9,-1.1,-1.4,6.9,-2.4,-0.9,-4.3,-1.4,4.2,-3.5
C[C@]1(c2nc3c(C(N)=O)cccc3[nH]2)CCCN1 [Veliparib],1.2,-1.3,-0.6,8.8,5.6,4.9,-1.2,-1.3,1.4,5.1,-1.3,-1.3,5.8
Cn1ncc(Cl)c1-c1cc(C(=O)N[C@H](CN)Cc2cccc(F)c2)sc1Cl [Afuresertib],-0.3,2.8,1.1,5.8,-3.4,-4.1,0.3,3.6,2.4,4.1,-4.7,-5.5,4.6
CC1(C)CCC(CN2CCN(c3ccc(C(=O)NS(=O)(=O)c4ccc(NCC5CCOCC5)c([N+](=O)[O-])c4)c(Oc4cnc5[nH]ccc5c4)c3)CC2)=C(c2ccc(Cl)cc2)C1 [Venetoclax],-2.6,3.9,-9.4,7.9,5.9,6.9,1.4,-1.6,-4.7,6.1,-4.7,-3.5,7.3
CN1CCN(c2ccc(C(=O)Nc3n[nH]c4ccc(Cc5cc(F)cc(F)c5)cc34)c(NC3CCOCC3)c2)CC1 [Entrectinib],2.3,2,-4.3,8.1,10.8,3,7.7,2,-1.1,12.9,0.2,-2.3,6
CCc1ccc(/C=C2/SC(=S)NC2=O)cc1,5.6,3.2,-1.6,1.2,4,-2.1,1,3.1,-1.2,-2.1,2.3,-2.1,-1.6
Cc1cc(Nc2ncc(Cl)c(Nc3ccccc3S(=O)(=O)C(C)C)n2)c(OC(C)C)cc1C1CCNCC1 [Ceritinib],3.4,4.9,0.3,11.7,3.7,2.9,7,2.1,3.8,3.5,0.4,-0.1,4.9
N#Cc1ccnc(N2C(=O)CC[C@H]2C(=O)N(c2cncc(F)c2)[C@H](C(=O)NC2CC(F)(F)C2)c2ccccc2Cl)c1 [Ivosidenib],-2.1,-2.1,-2.1,-2.1,18.2,-2.1,-2.1,-2.1,-2.1,-2.1,-2.1,-2.1,7.8
Cc1c(C(=O)Nc2ccc(N3C[C@@H](C)O[C@@H](C)C3)nc2)cccc1-c1ccc(OC(F)(F)F)cc1 [Sonidegib],-1.4,-1.4,2.3,-1.1,-1.4,-1.1,-1.4,-1.4,-1.4,-1.4,-1.4,-1.4,-1.4
O=C(O)C(=O)O.[NH-][C@@H]1CCCC[C@H]1[NH-].[Pt+2] [Oxaliplatin],1.2,2.2,-4.8,-2,-5,-0.1,5.9,-5,1,0.2,5.9,7.7,2.9
O=P1(N(CCCl)CCCl)NCCCO1 (configuration not stated) [Cyclophosphamide],-0.3,1.7,-0.3,3.8,-0.3,-0.3,-0.3,-0.3,-0.3,-0.3,-0.3,-0.3,-0.3
CC(C)(C)c1cc(NC(=O)Nc2ccc(-c3cn4c(n3)sc3cc(OCCN5CCOCC5)ccc34)cc2)no1 [Quizartinib],-0.6,-2.8,-3.2,1.6,9.4,-1.7,13.2,3.6,2.4,-0.8,-2.9,8.3,0.6
Nc1ccccc1NC(=O)c1ccc(CNc2nccc(-c3cccnc3)n2)cc1 [Mocetinostat],1.4,-3.3,-9,2.4,7.8,0.8,1.5,1.8,2.6,8.4,-2.7,-0.9,7.1
CN(C)/N=N/c1[nH]cnc1C(N)=O [Dacarbazine],-0.8,-0.8,-0.7,7.5,-0.8,-0.7,-0.7,0.9,-0.8,0.1,-0.8,-0.8,2.8
CO/N=C1\C[C@]2(C[C@@H]3C[C@@H](C/C=C(\C)C[C@@H](C)/C=C/C=C4\CO[C@@H]5[C@H](O)C(C)=C[C@@H](C(=O)O3)[C@]45O)O2)O[C@H](/C(C)=C/C(C)C)[C@H]1C [Moxidectin],-0.4,0.1,-4.8,3.7,0,0.2,-5,3.8,-0.2,0.9,-3.7,0,-1.8
O=C1NC(=O)[C@@H](c2cn3c4c(cccc24)CCC3)[C@@H]1c1c[nH]c2ccccc12 [Tivantinib],7.4,2.5,-3.8,9.4,2.2,9.4,-0.2,7.7,2.7,1,-3.1,-1.2,-1.9
CN1C(=O)N[C@H](Cc2c[nH]c3c(Cl)cccc23)C1=O [Necrostatin-2],-1.3,-2.7,-2.7,2.2,15.6,-1,8.4,-2.7,-2.7,7.5,-1.9,-2.5,13.8
COCC[n+]1c2c(n(Cc3cnccn3)c1C)C(=O)c1ccccc1C2=O [YM155],10.2,-2,9.6,9.6,2.3,5.7,2.5,9.3,10.1,9.9,-4.4,-0.4,6.8
CCc1c2c(nc3ccc(O)cc13)-c1cc3c(c(=O)n1C2)COC(=O)[C@]3(O)CC [SN-38],16.4,7,-1.4,15.3,4.9,13.2,5.2,15.7,17.1,14.9,-1,-0.9,8.8
CCCS(=O)(=O)Nc1ccc(F)c(C(=O)c2c[nH]c3ncc(-c4ccc(Cl)cc4)cc23)c1F [Vemurafenib],-0.6,-0.6,7.4,-0.6,-0.6,-0.6,-0.6,0.8,-0.6,-0.6,-0.6,-0.6,-0.6
CC1(COc2ccc3c(c2)ncn3-c2ccc3cccc(N4CCC(N)CC4)c3n2)COC1 [Crenolanib],-1.3,2.5,-4.2,3.4,1.2,4,1.4,2.8,4,2.9,-2.3,-1.7,-0.6
O=C(/C=C\n1cnc(-c2cc(C(F)(F)F)cc(C(F)(F)F)c2)n1)NNc1cnccn1 [Selinexor],-2.7,-1.3,-0.6,6.2,2.2,-0.6,1.3,-11.6,3.2,13.5,-5.5,-3.6,16.7
COc1cc(OC)cc(N(CCNC(C)C)c2ccc3ncc(-c4cnn(C)c4)nc3c2)c1 [Erdafitinib],-3.7,-1.4,-8,7.8,12.1,-2.3,-0.4,-1.7,-2.5,5,-4,-4.5,10.1
CO[C@H]1C[C@@H]2CC[C@@H](C)[C@@](O)(O2)C(=O)C(=O)N2CCCC[C@H]2C(=O)O[C@H]([C@H](C)C[C@@H]2CC[C@@H](O)[C@H](OC)C2)CC(=O)[C@H](C)/C=C(\C)[C@@H](O)[C@@H](OC)C(=O)[C@H](C)C[C@H](C)/C=C/C=C/C=C/1C [Sirolimus],-0.6,-10.4,-6.7,17.8,-8.7,5.7,-0.4,2.7,7.2,14.2,-10.4,-2.2,6.7
CCc1nc(C(N)=O)c(Nc2ccc(N3CCC(N4CCN(C)CC4)CC3)c(OC)c2)nc1NC1CCOCC1 [Gilteritinib],0.8,7.4,10.4,16,9.4,1.1,8,10.1,4.2,4.2,-1.4,1.6,10.2
Cn1ncnc1[C@H]1c2n[nH]c(=O)c3cc(F)cc(c23)N[C@@H]1c1ccc(F)cc1 [Talazoparib],24.4,-1.8,0.3,28.8,18.1,26.5,8.2,11.3,25.9,21.6,-5.9,-2.2,24.9
Nc1cc(C(F)F)c(-c2nc(N3C4CCC3COC4)nc(N3C4CCC3COC4)n2)cn1 [PQR620],-0.4,1.5,5,10.2,-3.2,0.1,0.8,2.8,2,5.3,-3.2,-3.3,4.4
